The values that follow are results of earlier work, collected in US20070276004A1, “Pharmaceutical Composition Comprising an Immunosuppressant for Use in the Treatment of Skin Diseases” (priority 2003, published 2007).

The series deals with allogeneic kidney transplantation. Conditions: rat model of allogeneic kidney transplantation; oral administration; suppression of systemic immune response.

As for `C=CC[C@@H]1/C=C(\C)C[C@H](C)C[C@H](OC)[C@H]2O[C@@](O)(C(=O)C(=O)N3CCCC[C@H]3C(=O)O[C@H](/C(C)=C/[C@@H]3CC[C@@H](O)[C@H](OC)C3)[C@H](C)[C@@H](O)CC1=O)[C@H](C)C[C@@H]2OC` [tacrolimus], the “minimum effective dose (MED)” value is on record as 14 mg/kg.
